Assay results published in ChEMBL document CHEMBL4308841, “Synthesis, in vitro antiproliferative activity, and kinase inhibitory effects of pyrazole-containing diarylureas and diarylamides” (Eur J Med Chem, 2018).

Assays:
[1] = test system: CCRF-CEM; assay: Growth inhibition of human CCRF-CEM cells assessed as cell growth at 10 uM incubated for 48 hrs by sulforhodamine B assay relative to control; type: functional; details: read-out: Activity
[2] = test system: K562; assay: Growth inhibition of human K562 cells assessed as cell growth at 10 uM incubated for 48 hrs by sulforhodamine B assay relative to control; type: functional; details: K562, 48 h, read-out: Activity
[3] = test system: HOP-62; assay: Growth inhibition of human HOP62 cells assessed as cell growth at 10 uM incubated for 48 hrs by sulforhodamine B assay relative to control; type: functional; details: HOP-62, 48 h, read-out: Activity
[4] = test system: NCI-H23; assay: Growth inhibition of human NCI-H23 cells assessed as cell growth at 10 uM incubated for 48 hrs by sulforhodamine B assay relative to control; type: functional; details: NCI-H23, 48 h, read-out: Activity
[5] = test system: NCI-H322M; assay: Growth inhibition of human NCI-H322M cells assessed as cell growth at 10 uM incubated for 48 hrs by sulforhodamine B assay relative to control; type: functional; details: read-out: Activity
[6] = test system: NCI-H460; assay: Growth inhibition of human NCI-H460 cells assessed as cell growth at 10 uM incubated for 48 hrs by sulforhodamine B assay relative to control; type: functional; details: NCI-H460, 48 h, read-out: Activity
[7] = test system: COLO 205; assay: Growth inhibition of human COLO205 cells assessed as cell growth at 10 uM incubated for 48 hrs by sulforhodamine B assay relative to control; type: functional; details: COLO 205, 48 h, read-out: Activity
[8] = test system: HCT-116; assay: Growth inhibition of human HCT116 cells assessed as cell growth at 10 uM incubated for 48 hrs by sulforhodamine B assay relative to control; type: functional; details: HCT-116, 48 h, read-out: Activity
[9] = test system: HCT-15; assay: Growth inhibition of human HCT15 cells assessed as cell growth at 10 uM incubated for 48 hrs by sulforhodamine B assay relative to control; type: functional; details: HCT-15, 48 h, read-out: Activity
[10] = test system: KM12; assay: Growth inhibition of human KM12 cells assessed as cell growth at 10 uM incubated for 48 hrs by sulforhodamine B assay relative to control; type: functional; details: KM12, 48 h, read-out: Activity
[11] = test system: SF-539; assay: Growth inhibition of human SF539 cells assessed as cell growth at 10 uM incubated for 48 hrs by sulforhodamine B assay relative to control; type: functional; details: SF-539, 48 h, read-out: Activity
[12] = test system: LOX IMVI; assay: Growth inhibition of human LOXIMVI cells assessed as cell growth at 10 uM incubated for 48 hrs by sulforhodamine B assay relative to control; type: functional; details: read-out: Activity
[13] = test system: Malme-3M; assay: Growth inhibition of human MALME-3M cells assessed as cell growth at 10 uM incubated for 48 hrs by sulforhodamine B assay relative to control; type: functional; details: read-out: Activity
[14] = test system: M14; assay: Growth inhibition of human M14 cells assessed as cell growth at 10 uM incubated for 48 hrs by sulforhodamine B assay relative to control; type: functional; details: M14, 48 h, read-out: Activity
[15] = test system: SK-MEL-28; assay: Growth inhibition of human SK-MEL-28 cells assessed as cell growth at 10 uM incubated for 48 hrs by sulforhodamine B assay relative to control; type: functional; details: SK-MEL-28, 48 h, read-out: Activity
[16] = test system: SK-MEL-5; assay: Growth inhibition of human SK-MEL-5 cells assessed as cell growth at 10 uM incubated for 48 hrs by sulforhodamine B assay relative to control; type: functional; details: SK-MEL-5, 48 h, read-out: Activity
[17] = test system: UO-31; assay: Growth inhibition of human UO31 cells assessed as cell growth at 10 uM incubated for 48 hrs by sulforhodamine B assay relative to control; type: functional; details: UO-31, 48 h, read-out: Activity
[18] = test system: PC-3; assay: Growth inhibition of human PC3 cells assessed as cell growth at 10 uM incubated for 48 hrs by sulforhodamine B assay relative to control; type: functional; details: PC-3, 48 h, read-out: Activity
[19] = test system: MDA-MB-231; assay: Growth inhibition of human MDA-MB-231 cells assessed as cell growth at 10 uM incubated for 48 hrs by sulforhodamine B assay relative to control; type: functional; details: MDA-MB-231, 48 h, read-out: Activity
[20] = test system: BT-549; assay: Growth inhibition of human BT549 cells assessed as cell growth at 10 uM incubated for 48 hrs by sulforhodamine B assay relative to control; type: functional; details: BT-549, 48 h, read-out: Activity
[21] = test system: MDA-MB-468; assay: Growth inhibition of human MDA-MB-468 cells assessed as cell growth at 10 uM incubated for 48 hrs by sulforhodamine B assay relative to control; type: functional; details: MDA-MB-468, 48 h, read-out: Activity
[22] = test system: SF-539; assay: Growth inhibition of human SF539 cells incubated for 48 hrs by sulforhodamine B assay; type: functional, cell-based; details: SF-539, 48 h
[23] = test system: OVCAR-5; assay: Growth inhibition of human OVCAR5 cells incubated for 48 hrs by sulforhodamine B assay; type: functional, cell-based; details: OVCAR-5, 48 h
[24] = test system: MDA-MB-231; assay: Growth inhibition of human MDA-MB-231 cells incubated for 48 hrs by sulforhodamine B assay; type: functional, cell-based; details: MDA-MB-231, 48 h
[25] = test system: COLO 205; assay: Growth inhibition of human COLO205 cells assessed as cell growth at 0.01 uM incubated for 48 hrs by sulforhodamine B assay relative to control; type: functional; details: COLO 205, 48 h, read-out: Activity
[26] = test system: COLO 205; assay: Growth inhibition of human COLO205 cells assessed as cell growth at 0.1 uM incubated for 48 hrs by sulforhodamine B assay relative to control; type: functional; details: COLO 205, 48 h, read-out: Activity
[27] = test system: UACC-257; assay: Growth inhibition of human UACC257 cells assessed as cell growth at 0.1 uM incubated for 48 hrs by sulforhodamine B assay relative to control; type: functional; details: UACC-257, 48 h, read-out: Activity
[28] = test system: OVCAR-3; assay: Growth inhibition of human OVCAR3 cells assessed as cell growth at 0.1 uM incubated for 48 hrs by sulforhodamine B assay relative to control; type: functional; details: OVCAR-3, 48 h, read-out: Activity
[29] = test system: A498; assay: Growth inhibition of human A498 cells assessed as cell growth at 0.1 uM incubated for 48 hrs by sulforhodamine B assay relative to control; type: functional; details: A498, 48 h, read-out: Activity
[30] = test system: MCF7; assay: Growth inhibition of human MCF7 cells assessed as cell growth at 0.1 uM incubated for 48 hrs by sulforhodamine B assay relative to control; type: functional; details: MCF7, 48 h, read-out: Activity
[31] = test system: U-251; assay: Growth inhibition of human U251 cells assessed as cell growth at 1 uM incubated for 48 hrs by sulforhodamine B assay relative to control; type: functional; details: U-251, 48 h, read-out: Activity
[32] = read-out: LC50 (the source's name)
[33] = read-out: pLC50 (the source's name) (converted)

Work on `COc1cc(Cl)cc(-c2nn(-c3cccc(NC(=O)Nc4cc(C(F)(F)F)cc(C(F)(F)F)c4)c3)cc2-c2ccncc2)c1` yielded a growth at 10 µM [1] of -22%, a growth at 10 µM [2] of 6.4% and a growth at 10 µM [3] of -41%. The growth at 10 µM [4] was -6.14%, the growth at 10 µM [5] was 11% and the growth at 10 µM [6] was 0.24%. It also gave a growth at 10 µM [7] of -64%, a growth at 10 µM [8] of -4.6% and a growth at 10 µM [9] of 6.21%. It also gave a growth at 10 µM [10] of 12.2%, a growth at 10 µM [11] of -17.7% and a growth at 10 µM [12] of -24%. For the same molecule, the growth at 10 µM [13] was -19.2%, the growth at 10 µM [14] was 1.22% and the growth at 10 µM [15] was 6.55%. The growth at 10 µM [16] was -79.4%, the growth at 10 µM [17] was -0.18% and the growth at 10 µM [18] was -6.27%. The growth at 10 µM [19] was -75%, the growth at 10 µM [20] was 6.61% and the growth at 10 µM [21] was -2.95%. The IC50 [22] was 1410 nM, the CC50 [22, 32] was 55 nM and the TGI ([22]; read-out: TGI) was 3490 nM. The GI50 ([22]; read-out: pGI50 (converted)) was 1410 nM, the CC50 [22, 33] was 8710 nM and the TGI ([22]; read-out: pTGI (converted)) was 3550 nM. For the same molecule, the IC50 [23] was 1460 nM, the GI50 ([23]; read-out: GI50) was 1460 nM and the CC50 [23, 32] was greater than 100000 nM. The TGI ([23]; read-out: TGI) was 12800 nM, the GI50 ([23]; read-out: pGI50 (converted)) was 1450 nM and the CC50 [23, 33] was greater than 100000 nM. The TGI ([23]; read-out: pTGI (converted)) was 12900 nM, the IC50 [24] was 460 nM and the GI50 ([24]; read-out: GI50) was 456 nM. The TGI ([24]; read-out: TGI) was 1860 nM, the GI50 ([24]; read-out: pGI50 (converted)) was 457 nM and the CC50 [24, 33] was 5370 nM. The TGI ([24]; read-out: pTGI (converted)) was 1860 nM, the growth at 0.01 µM [25] was 98% and the growth at 0.1 µM [26] was 98%. It also gave a growth at 0.1 µM [27] of 94%, a growth at 0.1 µM [28] of 95% and a growth at 0.1 µM [29] of 69%. It also gave a growth at 0.1 µM [30] of 91% and a growth at 1 µM [31] of 11%.
